Source: patent US20260285850A1, “SUBSTITUTED OXAZOLIDINONES AND IMIDAZOLINONES AS HERBICIDES” (FMC CORPORATION, priority 2023, published 2026)

How the values were obtained:
Assay type in all cases: in vivo
kochia (Bassia scoparia) [1] = test: Test A postemergence application, visual injury rating 0-100; details: for Kochia plant response rating (0 to 100 scale): Postemergence
Outline: (§1)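 Loam-sand pots got test material in surfactant-containing solvent, either as a directed soil spray before emergence or on plants at the one- to two-leaf stage. Visual injury (0-100) was read after ten greenhouse days.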

[2] = test system: barnyardgrass (Echinochloa crus-galli); test: as above; details: for Barnyardgrass plant response rating (0 to 100 scale): Postemergence
Outline: as §1

[3] = test system: green foxtail (Setaria viridis); test: as above
Outline: as §1

[4] = test system: oat, wild (wild oat, Avena fatua); test: as above; details: for Oat, Wild plant response rating (0 to 100 scale): Postemergence
Outline: as §1

[5] = test system: ragweed (common ragweed, Ambrosia artemisiifolia); test: as above; details: for Ragweed plant response rating (0 to 100 scale): Postemergence
Outline: as §1

[6] = test system: blackgrass (Alopecurus myosuroides); test: as above; details: for Blackgrass plant response rating (0 to 100 scale): Postemergence
Outline: as §1

[7] = test system: galium (catchweed bedstraw, Galium aparine); test: as above; details: for Galium plant response rating (0 to 100 scale): Postemergence
Outline: as §1

[8] = test system: wheat (Triticum aestivum); test: as above; details: for Wheat plant response rating (0 to 100 scale): Postemergence
Outline: as §1

corn (Zea mays) [9] = test: as above; details: for Corn plant response rating (0 to 100 scale): Postemergence
Outline: as §1

[10] = test system: ryegrass, Italian (italian ryegrass, Lolium multiflorum); test: as above; details: for Ryegrass, Italian plant response rating (0 to 100 scale): Postemergence
Outline: as §1

soybean (Glycine max) [11] = test: as above; details: for Soybean plant response rating (0 to 100 scale): Postemergence
Outline: as §1

[12] = test system: palmer (palmer amaranth, palmer pigweed, Amaranthus palmeri); test: as above
Outline: as §1

kochia (Bassia scoparia) [13] = test: Test A preemergence soil spray, visual injury rating 0-100; details: 10 days
Outline: as §1

[14] = test system: barnyardgrass (Echinochloa crus-galli); test: as above; details: 10 days
Outline: as §1

[15] = test system: green foxtail (Setaria viridis); test: as above; details: 10 days
Outline: as §1

[16] = test system: oat, wild (wild oat, Avena fatua); test: as above; details: 10 days
Outline: as §1

[17] = test system: ragweed (common ragweed, Ambrosia artemisiifolia); test: as above; details: 10 days
Outline: as §1

[18] = test system: blackgrass (Alopecurus myosuroides); test: as above; details: 10 days
Outline: as §1

[19] = test system: wheat (Triticum aestivum); test: as above; details: 10 days
Outline: as §1

corn (Zea mays) [20] = test: as above; details: 10 days
Outline: as §1

[21] = test system: ryegrass, Italian (italian ryegrass, Lolium multiflorum); test: as above; details: 10 days
Outline: as §1

soybean (Glycine max) [22] = test: as above; details: 10 days
Outline: as §1

[23] = test system: palmer (palmer amaranth, palmer pigweed, Amaranthus palmeri); test: as above; details: 10 days
Outline: as §1

[24] = test system: barnyardgrass (Echinochloa crusgalli); test: Test B flooded paddy test, visual plant response rating 0-100; details: 250 g ai/ha, Flood, applied to paddy water, evaluated after 13 days
Outline: (§2)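 Treatment occurs at the 2-leaf stage by adding compound to floodwater standing 3 cm above the soil, a level kept for the whole test. Plants stay in the greenhouse 13 days before visual comparison with controls.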

[25] = test system: ducksalad (Heteranthera limosa); test: as above; details: 250 g ai/ha, Flood, applied to paddy water, evaluated after 13 days
Outline: as §2

[26] = test system: sedge, umbrella (small-flower umbrella sedge, Cyperus difformis); test: as above; details: 250 g ai/ha, Flood, applied to paddy water, evaluated after 13 days
Outline: as §2

rice (Oryza sativa) = test: as above; details: 250 g ai/ha, Flood, applied to paddy water, evaluated after 13 days
Outline: as §2

[27] = test system: horseweed (Erigeron canadensis); test: Test A postemergence application, visual injury rating 0-100; details: Postemergence
Outline: as §1

[28] = 62 g ai/ha, postemergence, 10 days, 0 = no effect, 100 = complete control
[29] = 16 g ai/ha, greenhouse 10 days, 0 no effect, 100 complete control
[30] = Postemergence, 16 g ai/ha, greenhouse 10 days, 0 no effect, 100 complete control
[31] = 62 g ai/ha, 0 = no effect, 100 = complete control
[32] = 31 g ai/ha, greenhouse 10 days, 0 no effect, 100 complete control
[33] = 125 g ai/ha, 10 days, 0 is no effect, 100 is complete control
[34] = 31 g ai/ha, 0 = no effect, 100 = complete control
[35] = 125 g ai/ha, 0 = no effect, 100 = complete control

`COC(=O)C1=CCC(NC(=O)C2(C)CN(c3cc(F)c(F)c(F)c3)C(=O)O2)C1` (mixture of isomers) [Compound 163] was tested, and the “Kochia plant response rating (0-100)” value (kochia (Bassia scoparia) [1]; [28]) was 90, the “Kochia plant response rating (0 to 100 scale)” value (kochia (Bassia scoparia) [1]; [29]) was 20 and the “Barnyardgrass plant response rating (0-100)” value [2, 28] was 100. The “Barnyardgrass plant response rating (0 to 100 scale)” value [2, 29] was 70, the “Foxtail, Green plant response rating (0-100)” value [3, 28] was 90 and the “Foxtail, Green plant response rating (0 to 100 scale)” value [3, 30] was 50. For the same compound, the “Oat, Wild plant response rating (0-100)” value [4, 28] was 90, the “Oat, Wild plant response rating (0 to 100 scale)” value (“Oat … (0 to 100 scale)” for short) [4, 29] was 30 and the “Ragweed plant response rating (0-100)” value [5, 28] was 0. For the same compound, the “Ragweed plant response rating (0 to 100 scale)” value [5, 29] was 0, the “Blackgrass plant response rating (0-100)” value [6, 28] was 70 and the “Blackgrass plant response rating (0 to 100 scale)” value [6, 29] was 20. The “Galium plant response rating (0-100)” value [7, 28] was 70, the “Galium plant response rating (0 to 100 scale)” value [7, 29] was 40 and the “Wheat plant response rating (0-100)” value [8, 28] was 70. The “Wheat plant response rating (0 to 100 scale)” value [8, 29] was 30, the “Corn plant response rating (0-100)” value (corn (Zea mays) [9]; [28]) was 100 and the “Corn plant response rating (0 to 100 scale)” value (corn (Zea mays) [9]; [29]) was 90. For the same compound, the “Ryegrass, Italian plant response rating (0-100)” value (“Ryegrass … (0-100)” below) [10, 28] was 80, the “Ryegrass, Italian plant response rating (0 to 100 scale)” value (“Ryegrass … (0 to 100 scale)” below) [10, 29] was 60 and the “Soybean plant response rating (0-100)” value (soybean (Glycine max) [11]; [28]) was 70. The “Soybean plant response rating (0 to 100 scale)” value (soybean (Glycine max) [11]; [29]) was 50, the “Pigweed, Palmer plant response rating (0-100)” value [12, 28] was 80 and the “Pigweed, Palmer plant response rating (0 to 100 scale)” value [12, 30] was 10. For the same compound, the “Kochia plant response rating” value (kochia (Bassia scoparia) [13]; 16 g ai/ha, 0 to 100 scale) was 0, the “Kochia plant response rating (0-100)” value (kochia (Bassia scoparia) [13]; [31]) was 0 and the “Barnyardgrass plant response rating” value ([14]; 16 g ai/ha, 0 to 100 scale) was 0. The “Barnyardgrass plant response rating (0-100)” value [14, 31] was 20, the “Foxtail, Green plant response rating” value ([15]; 16 g ai/ha, 0 to 100 scale) was 0 and the “Foxtail, Green plant response rating (0-100)” value [15, 31] was 20. For the same compound, the “Oat, Wild plant response rating” value ([16]; 16 g ai/ha, 0 to 100 scale) was 0, the “Oat, Wild plant response rating (0-100)” value [16, 31] was 20 and the “Ragweed plant response rating” value ([17]; 16 g ai/ha, 0 to 100 scale) was 0. The “Ragweed plant response rating (0-100)” value [17, 31] was 10, the “Blackgrass plant response rating” value ([18]; 16 g ai/ha, 0 to 100 scale) was 0 and the “Blackgrass plant response rating (0-100)” value [18, 31] was 0. For the same compound, the “Wheat plant response rating” value ([19]; 16 g ai/ha, 0 to 100 scale) was 20, the “Wheat plant response rating (0-100)” value [19, 31] was 80 and the “Corn plant response rating” value (corn (Zea mays) [20]; 16 g ai/ha, 0 to 100 scale) was 0. For the same compound, the “Corn plant response rating (0-100)” value (corn (Zea mays) [20]; [31]) was 70, the “Ryegrass, Italian plant response rating” value ([21]; 16 g ai/ha, 0 to 100 scale) was 0 and the “Ryegrass … (0-100)” value [21, 31] was 80. The “Soybean plant response rating” value (soybean (Glycine max) [22]; 16 g ai/ha, 0 to 100 scale) was 0, the “Soybean plant response rating (0-100)” value (soybean (Glycine max) [22]; [31]) was 0 and the “Pigweed, Palmer plant response rating” value ([23]; 16 g ai/ha, 0 to 100 scale) was 0. For the same compound, the “Pigweed, Palmer plant response rating (0-100)” value [23, 31] was 0, the “Plant response rating, Barnyardgrass (0 to 100 scale, 0 is no effect and 100 is complete control)” value [24] was 55 and the “Plant response rating, Ducksalad (0 to 100 scale, 0 is no effect and 100 is complete control)” value [25] was 85. For the same compound, the “Plant response rating, Sedge, Umbrella (0 to 100 scale, 0 is no effect and 100 is complete control)” value [26] was 85 and the “Plant response rating, Rice (0 to 100 scale, 0 is no effect and 100 is complete control)” value (rice (Oryza sativa)) was 60.

`CC1(C(=O)NC2CC=C(C(=O)O)C2)CN(c2cc(Cl)cc(Cl)c2)C(=O)O1` (centres unmarked) [Compound 72] was tested, and the “Kochia plant response rating (0 to 100 scale)” value (kochia (Bassia scoparia) [1]; [32]) was 80, the “Kochia plant response rating (0 to 100 scale)” value (kochia (Bassia scoparia) [1]; [33]) was 80 and the “Barnyardgrass plant response rating (0 to 100 scale)” value [2, 32] was 90. The “Barnyardgrass plant response rating (0 to 100 scale)” value [2, 33] was 90, the “Oat … (0 to 100 scale)” value [4, 32] was 40 and the “Oat … (0 to 100 scale)” value [4, 33] was 60. For the same compound, the “Horseweed plant response rating (0 to 100 scale)” value [27, 32] was 70, the “Horseweed plant response rating (0 to 100 scale)” value [27, 33] was 80 and the “Ragweed plant response rating (0 to 100 scale)” value [5, 32] was 50. For the same compound, the “Ragweed plant response rating (0 to 100 scale)” value [5, 33] was 70, the “Blackgrass plant response rating (0 to 100 scale)” value [6, 32] was 90 and the “Blackgrass plant response rating (0 to 100 scale)” value [6, 33] was 90. The “Galium plant response rating (0 to 100 scale)” value [7, 32] was 80, the “Galium plant response rating (0 to 100 scale)” value [7, 33] was 80 and the “Wheat plant response rating (0 to 100 scale)” value [8, 32] was 80. For the same compound, the “Wheat plant response rating (0 to 100 scale)” value [8, 33] was 90, the “Corn plant response rating (0 to 100 scale)” value (corn (Zea mays) [9]; [32]) was 100 and the “Corn plant response rating (0 to 100 scale)” value (corn (Zea mays) [9]; [33]) was 100. The “Ryegrass … (0 to 100 scale)” value [10, 32] was 70, the “Ryegrass … (0 to 100 scale)” value [10, 33] was 70 and the “Soybean plant response rating (0 to 100 scale)” value (soybean (Glycine max) [11]; [32]) was 80. The “Soybean plant response rating (0 to 100 scale)” value (soybean (Glycine max) [11]; [33]) was 90, the “Amaranth, Palmer / Pigweed, Palmer plant response rating (0 to 100 scale)” value ([12]; Postemergence, 31 g ai/ha, greenhouse 10 days, 0 no effect, 100 complete control) was 90 and the “Amaranth, Palmer / Pigweed, Palmer plant response rating (0 to 100 scale)” value ([12]; Postemergence, 125 g ai/ha, 10 days, 0 is no effect, 100 is complete control) was 90. For the same compound, the “Kochia plant response rating (0-100)” value (kochia (Bassia scoparia) [13]; [34]) was 80, the “Kochia plant response rating (0 to 100 scale)” value (kochia (Bassia scoparia) [13]; [35]) was 90 and the “Barnyardgrass plant response rating (0-100)” value [14, 34] was 60. For the same compound, the “Barnyardgrass plant response rating (0 to 100 scale)” value [14, 35] was 90, the “Oat, Wild plant response rating (0-100)” value [16, 34] was 10 and the “Oat … (0 to 100 scale)” value [16, 35] was 40. The “Ragweed plant response rating (0-100)” value [17, 34] was 0, the “Ragweed plant response rating (0 to 100 scale)” value [17, 35] was 40 and the “Blackgrass plant response rating (0-100)” value [18, 34] was 0. The “Blackgrass plant response rating (0 to 100 scale)” value [18, 35] was 30, the “Wheat plant response rating (0-100)” value [19, 34] was 40 and the “Wheat plant response rating (0 to 100 scale)” value [19, 35] was 80. For the same compound, the “Corn plant response rating (0-100)” value (corn (Zea mays) [20]; [34]) was 0, the “Corn plant response rating (0 to 100 scale)” value (corn (Zea mays) [20]; [35]) was 60 and the “Ryegrass … (0-100)” value [21, 34] was 40. The “Ryegrass … (0 to 100 scale)” value [21, 35] was 80, the “Soybean plant response rating (0-100)” value (soybean (Glycine max) [22]; [34]) was 0 and the “Soybean plant response rating (0 to 100 scale)” value (soybean (Glycine max) [22]; [35]) was 80. For the same compound, the “Amaranth, Palmer plant response rating (0-100)” value [23, 34] was 90, the “Amaranth, Palmer plant response rating (0 to 100 scale)” value [23, 35] was 100 and the “Plant response rating, Barnyardgrass (0 to 100 scale, 0 is no effect and 100 is complete control)” value [24] was 55. For the same compound, the “Plant response rating, Ducksalad (0 to 100 scale, 0 is no effect and 100 is complete control)” value [25] was 75, the “Plant response rating, Sedge, Umbrella (0 to 100 scale, 0 is no effect and 100 is complete control)” value [26] was 98 and the “Plant response rating, Rice (0 to 100 scale, 0 is no effect and 100 is complete control)” value (rice (Oryza sativa)) was 85.
